Assay results reported in patent US20030186891A1, “Compositions and methods for treatment of vitamin D deficiency” (priority 2002, published 2003).

Assays:
[1] = test system: 24-hydroxylase mRNA; experiment: 24-hydroxylase mRNA expression in CL-8 cells; assay type: cell-based; conditions: 1α,25-dihydroxyvitamin D3 10^−9 M, 5 hours (FIG. 4)
Experimental: CL-8 cells were grown as above and the peptide of SEQ ID NO.1 was either not added to the cells, or added to the cells at a concentration of either 100 or 500 ng/ml. Cells were grown for a further 5 hours, and RNA was harvested using methods described above and expression levels of 24-hydroxylase were determined in each sample using methods described above. […]

[2] = test system: 1α-hydroxylase mRNA; experiment: 1α-hydroxylase mRNA expression in CL-8 cells (real-time quantitative PCR); assay type: cell-based, human
Experimental: Cell culture, RNA preparation and cDNA synthesis: CL-8 cells (1.6×10^6 cells) were placed in 60 mm culture dish, and cultured for 48 hours in 5% FCS D-MEM/HamF-12(1:1) medium. This medium was exchanged to FCS free, 0.5 mM Ca defined medium [D-MEM/HamF-12 (13:87), Insulin 5 μg/ml, Transferrin 5 μg/ml, Na2SeO3 5 ng/ml, T3 0.37 nM, EGF 2.5 ng/ml, Hydrocortisone 1 nM]. After 24 hours, the peptide of SEQ ID NO.1 (100 ng/ml or 500 ng/ml) or PTH 100 nM were added and cultured for 5 hours. After treatment, the total cellular contents of each well were used for RNA extraction and reverse transcription (RT). RNA was isolated using ISOGEN (Nippon Gene, Japan) according to the manufacturer's protocol. The purified RNA was redissolved in 10 μl RNase-free water and used for cDNA synthesis by RT. The RT was performed in a 20 μl reaction mixture containing 10 mM Tris buffer, pH8.3, 50 mM KCl, 5 mM MgCl2, 1 mM each of dATP, dGTP, dCTP and dTTP, 20 U of RNase inhibitor, 1 μM Reverse primer and 5 U of AMV reverse transcriptase. The reaction mixture was incubated at 30° C. for 10 min, 55° C. for 15 min, 95° C. for 5 min followed by 5° C. for 5 min.
Real-time quantitative PCR: mRNA was quantitated for human 1α-OHase gene and β-actin. Theses gene were amplified using primers of oligo synthesis DNA (Takara, Japan). […] Quantitation of mRNA was performed using Applied Biosystems GeneAmp 5700 sequence detection system with SYBR Green methods.
In order to study the effect of the peptide of SEQ ID No. 1 on the regulation of 1α-hydoxylase mRNA expression, CL-8 cells were grown with and without the peptide of SEQ ID No. 1 and the effects of the peptide on 1α-hydroxylase were quantified. […]
PTH and the peptide of SEQ ID NO.1 induce the expression of 1α-hydroxylase mRNA. […] Cells were grown for a further 5 hours, and RNA was harvested and expression levels of 1α-hydroxylase were determined in each sample using standard Northern blotting or RT-PCR procedures.

C=C1/C(=C\C=C2/CCC[C@]3(C)[C@@H]([C@H](C)CCCC(C)(C)O)CC[C@@H]23)C[C@@H](O)C[C@@H]1O [1α,25-dihydroxyvitamin D3]
levels of 24-hydroxylase mRNA [1]: significant increase

O=S(=O)(NCCNC/C=C/c1ccc(Br)cc1)c1cccc2cnccc12 [H-89]
effect of H-89 on the inducing effects of PTH on 1α-hydroxylase mRNA expression ([2]; H-89 10 uM with PTH 100 nmol, 5 hours (FIG. 2)): inhibited
effect of H-89 on the stimulatory effects of the peptide of SEQ ID NO.1 on 1α-hydroxylase mRNA expression ([2]; H-89 10 uM with peptide 100 or 500 ng/ml, 5 hours): did not inhibit

B1: parathyroid hormone (peptide, UniProt P01270 32-115, looked up)
Parathyroid hormone: SVSEIQLMHNLGKHLNSMERVEWLRKKLQDVHNFVALGAPLAPRDAGSQRPRKKEDNVLVESHEKSLGEADKADVNVLTKAKSQ
modifications: Parathyroid hormone
notes: parathyroid hormone, comparator inducer of 1α-hydroxylase mRNA acting via a PKA-dependent pathway
induction of the expression of 1α-hydroxylase mRNA [2]: induce
